Measured values: a compilation of properties of binary mixtures (doi:10.1021/je990084v)

Assay: excess molar enthalpy (molar enthalpy of mixing); xn = mol fraction of the nth substance listed
Details: 298.15 K, 100 kPa

Row | SMILES | excess molar enthalpy (x2 = 0.214) | excess molar enthalpy (x2 = 0.3094) | excess molar enthalpy (x2 = 0.4262) | excess molar enthalpy (x2 = 0.5328) | excess molar enthalpy (x2 = 0.6067) | excess molar enthalpy (x2 = 0.6761) | excess molar enthalpy (x2 = 0.72) | excess molar enthalpy (x2 = 0.0754) | excess molar enthalpy (x2 = 0.1116) | excess molar enthalpy (x2 = 0.2147) | excess molar enthalpy (x2 = 0.3102) | excess molar enthalpy (x2 = 0.5338) | excess molar enthalpy (x2 = 0.6007) | excess molar enthalpy (x2 = 0.677)
1 | CC(C)OC(C)C + CCC(C)O | 0.165 kcal/mol | 0.189 kcal/mol | 0.198 kcal/mol | 0.187 kcal/mol | 0.17 kcal/mol | 0.146 kcal/mol | 0.133 kcal/mol | – | – | – | – | – | – | –
2 | CC(C)OC(C)C + CCCCO | – | – | – | – | – | – | – | 0.061 kcal/mol | 0.0808 kcal/mol | 0.109 kcal/mol | 0.118 kcal/mol | 0.102 kcal/mol | 0.0884 kcal/mol | 0.111 kcal/mol
